{"source": "patent US20240001012A1", "about": "“SOLUTIONS FOR […] OF A DRUG AD[…] […] AND DOSING ALGORITHM THEREFOR” (DREXEL UNIVERSITY, priority 2017, published 2024)", "key": {"Streptococcus pneumoniae": {"tested_on": "Streptococcus pneumoniae", "assay": "Follow-up cultures in patient 4 on vancomycin via CRRT", "format": "in vivo, human", "details": "vancomycin continued 2 days", "excerpt": "(§1) Only two patients, patients 4 and 9, had cultures that were positive for a gram-positive organism. […] Subsequent cultures obtained from the blood and the respiratory system were negative. The isolate of Streptococcus pneumoniae was penicillin sensitive, and the patient was changed to ampicillin for the remainder of the treatment course."}, "[1]": {"details": "escalation in CRRT intensity from hemofiltration to hemodiafiltration; Joy et al. 1998; cited from earlier work"}, "[2]": {"tested_on": "methicillin-sensitive Staphylococcus aureus", "assay": "Follow-up cultures in patient 9 on vancomycin via CRRT", "format": "in vivo, human", "details": "day 6 of vancomycin therapy, blood culture also negative", "excerpt": "as §1"}, "[3]": {"assay": "Stability of vancomycin with components of the CRRT solution", "format": "physicochemical", "details": "in CRRT solution", "excerpt": "The CRRT or like solution may be prepared at the time it is needed following current standard operating procedures for sterile product compounding or as discussed below in greater detail. The amount of vancomycin, for instance, to be added to the solution is described below in greater detail. Accordingly, this mixed solution is provided for being infused for the duration it is prescribed for CRRT. […] Other drugs may be stable for less or more time."}, "[4]": {"assay": "Serum vancomycin plateau level in patients receiving continuous infusion vancomycin mixed in the CRRT solution", "format": "in vivo, human", "method": "According to embodiments disclosed herein, drug concentrations in the solution(s) are adjusted in vitro based on an initial serum plateau level, and subsequent levels are thereafter obtained based on these changes. […] See step 70.\nIn this study, CRRT was performed using a Prismaflex System machine (Gambro, Lakewood, CO). The mode of dialysis, continuous venovenous hemofiltration or hemodiafiltration was dictated by an attending nephrologist prescribing the dialysis. The\n(§2) Prismaflex machine was initially primed with two 1-L bags of normal saline and 5,000 units of heparin. The machine was then primed with normal saline, 5% albumin, or a blood exchange (blood is transfused to the patient as the prime is wasted) depending on the percent extracorporeal volume of the patient with a dialysis solution utilizing HF1000, AN69 dialysis filters. Commercially available dialysate and replacement solutions were used for all CRRT patients. The CRRT circuit and solutions were inspected and observed for adverse events, such as specifically for precipitation and clotting. The CRRT solution(s) and circuit were visually inspected after addition of the CRRT circuit prior to the final connection to the patient.\nThe median eGFR on ICU admission was 39.9 mL/min/1.73 m 2 (25th to 75th IQR, 25.8-53.4 mL/min/1.73 m 2) compared with a median eGFR of 26.7 mL/min/1.73 m 2 (25th to 75th IQR, 18.8-42.7 mL/min/1.73 m 2) with the initiation of CRRT."}, "[5]": {"assay": "Inspection of CRRT solution(s) and circuit for precipitation and clotting after mixing vancomycin", "details": "on mixing the vancomycin in the CRRT solution", "excerpt": "Upon initiation of CRRT, the CRRT circuit may be inspected and evaluated on an hourly basis according to current standards of care. A part of the hourly standard of care inspection may involve inspection of the CRRT solution for precipitation and crystallization. This assessment should continue for the period of time the patient is receiving CRRT and vancomycin or other antibiotics is mixed in the CRRT solution.\nas §2"}}, "data": [{"smiles": "CN[C@H](CC(C)C)C(=O)N[C@H]1C(=O)N[C@@H](CC(N)=O)C(=O)N[C@H]2C(=O)N[C@H]3C(=O)N[C@H](C(=O)N[C@H](C(=O)O)c4cc(O)cc(O)c4-c4cc3ccc4O)[C@H](O)c3ccc(c(Cl)c3)Oc3cc2cc(c3O[C@@H]2O[C@H](CO)[C@@H](O)[C@H](O)[C@H]2O[C@H]2C[C@](C)(N)[C@H](O)[C@H](C)O2)Oc2ccc(cc2Cl)[C@H]1O", "note": "[Vancomycin, vancomycin]", "values": [{"measurement": "subsequent cultures from blood and respiratory system", "setting": "Streptococcus pneumoniae", "result": "negative"}, {"measurement": "increase in vancomycin clearance", "setting": "[1]", "result": "greater than or equal to 30%"}, {"measurement": "repeat respiratory culture", "setting": "[2]", "result": "negative"}, {"measurement": "stable with components of the CRRT solution", "setting": "[3]", "result": "at least 96 hours"}, {"measurement": "median (25th to 75th IQR) vancomycin serum plateau concentration", "setting": "[4]; 11 patients, median solution concentration 25 mg/L", "result": "21.8 (20.9-25)"}, {"measurement": "Vancomycin Level, IQR, 25", "setting": "[4]; all levels of 11 patients", "result": 20.9, "unit": "µg/mL"}, {"measurement": "Vancomycin Level, IQR, 75", "setting": "[4]; all levels of 11 patients", "result": 25, "unit": "µg/mL"}, {"measurement": "Vancomycin Level, Min", "setting": "[4]; all levels of 11 patients", "result": 12.9, "unit": "µg/mL"}, {"measurement": "Vancomycin Level, Mean", "setting": "[4]; all levels of 11 patients, mean CRRT solution concentration 26.5 μg/mL", "result": 22.3, "unit": "µg/mL"}, {"measurement": "Vancomycin Level, Median", "setting": "[4]; all levels of 11 patients, median CRRT solution concentration 25 μg/mL", "result": 21.8, "unit": "µg/mL"}, {"measurement": "attainment of therapeutic vancomycin serum plateau levels", "setting": "[4]; all patients, regardless of CRRT modality, dose and flow rate", "result": "all patients achieved therapeutic vancomycin serum plateau levels"}, {"measurement": "concentration at 8 h", "setting": "[4]; human, serum, other: continuous infusion mixed in the CRRT solution, the one patient below 15 mg/L at 8 hours", "result": 12900, "unit": "ng/mL"}, {"measurement": "therapeutic serum level after adjustment of the CRRT solution concentration", "setting": "[4]; same patient, within 16 hours of starting CRRT", "result": 23.5, "unit": "mg/L"}, {"measurement": "patients achieving a therapeutic serum vancomycin level within 8 hours", "setting": "[4]; ten of eleven patients, within 8 hours of starting mixing vancomycin into the CRRT solution, target 15-30 mg/L", "result": 91, "unit": "%"}, {"measurement": "adverse events regarding precipitation of vancomycin with CRRT solution(s) or circuit", "setting": "[5]", "result": "no adverse events were observed"}]}]}
